Where “and” joins values, the source holds several entries; their conditions need not be identical. Equal entries are not always repeated.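 48-hour exposure; five concentrations; linearly interpolated endpoints. At the GI50, growth is halved. At the TGI there is no net growth.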
Legend:
Assay in all cases: growth of human tumour cells (NCI), 48 h
HCT-15 colon = test system: HCT-15 colon
TK-10 renal = test system: TK-10 renal
PC-3 prostate = test system: PC-3 prostate
UO-31 renal = test system: UO-31 renal
HCT-116 colon = test system: HCT-116 colon
HOP-92 NSCLC = test system: HOP-92 NSCLC
HS 578T breast = test system: HS 578T breast
BT-549 breast = test system: BT-549 breast
MDA-MB-435 = test system: MDA-MB-435
ACHN renal = test system: ACHN renal

SMILES | TGI (HCT-15 colon) | TGI (TK-10 renal) | TGI (PC-3 prostate) | TGI (UO-31 renal) | TGI (HCT-116 colon) | TGI (HOP-92 NSCLC) | TGI (HS 578T breast) | TGI (BT-549 breast) | TGI (MDA-MB-435) | TGI (ACHN renal) | GI50 (HCT-15 colon) | GI50 (PC-3 prostate) | GI50 (UO-31 renal) | GI50 (HCT-116 colon) | GI50 (HOP-92 NSCLC) | GI50 (MDA-MB-435) | GI50 (ACHN renal)
CCOC(=O)/C(C#N)=C(/NNc1ccccc1)c1ccncc1C(=O)O | > 100 µM | > 100 µM | > 100 µM | > 100 µM | > 100 µM | > 100 µM | > 100 µM | > 100 µM | > 100 µM | > 100 µM | – | – | – | – | – | – | –
Cc1cc(S(=O)(=O)Nc2nc3ccccc3n2-c2ccccc2)c(S)cc1Cl | > 100 µM | – | > 100 µM | > 100 µM | > 100 µM | > 100 µM | > 100 µM | > 100 µM | > 100 µM | > 100 µM | – | – | – | – | – | – | –
CC(C)(C)c1cc(C(=O)/C=C/c2ccn[nH]2)cc(C(C)(C)C)c1O | 4.71 µM | 2.92 µM | 5.18 µM | 3.23 µM | 6.11 µM | 5.53 µM | 9.22 µM | 17 µM | 8.34 µM | 3.03 µM | – | – | – | – | – | – | –
CCOC(=O)C(NC(=O)CC)(Nc1ccc(S(=O)(=O)Nc2nc(C)cc(C)n2)cc1)C(F)(F)F (centres undefined) | > 100 µM | > 100 µM | > 100 µM | > 100 µM | > 100 µM | > 100 µM | > 100 µM | > 100 µM | > 100 µM | > 100 µM | – | – | – | – | – | – | –
CC(C)C(C/C=C1/CC(CO)(COC(=O)C2CCCCC2)OC1=O)C(C)C (centres undefined) | 39.6 µM | 37.4 µM | 35.6 µM | 33.1 µM | 33.9 µM | 29.8 µM | 43.5 µM | 54.8 µM | > 100 µM | 30.2 µM | – | – | – | – | – | – | –
O=S1(=O)C(c2ccccc2)=C(O)c2ccccc21 | > 100 µM | > 100 µM | > 100 µM | > 100 µM | > 100 µM | > 100 µM | > 100 µM | > 100 µM | > 100 µM | > 100 µM | – | – | – | – | – | – | –
COC(=O)/C=C/c1cc(OC)c2oc(-c3ccc(OC)c(OC)c3)c(C(=O)OC)c2c1 | > 100 µM | > 100 µM | > 100 µM | > 100 µM | – | > 100 µM | > 100 µM | > 100 µM | > 100 µM | > 100 µM | – | – | – | – | – | – | –
Nc1ccc(-c2nc3ccc(F)cc3s2)cc1 | > 100 µM | 78.8 µM | 92.6 µM | > 100 µM | > 100 µM | > 100 µM | > 100 µM | > 100 µM | 70.4 µM | 66.6 µM | – | – | – | – | – | – | –
CN(CCc1ccc(Cl)c(Cl)c1)CCN(C)CCN1CCCC1 | 38.4 µM | 26.7 µM | 39.7 µM | 17.2 µM | 18.7 µM | 16 µM | 46.3 µM | 36.2 µM | 4.5 µM | 47.2 µM | – | – | – | – | – | – | –
Oc1nc(N/N=C/c2ccccc2)[nH]c1/C=C1\C=Nc2ccccc21 | > 100 µM | > 100 µM | > 100 µM | > 100 µM | > 100 µM | > 100 µM | > 100 µM | > 100 µM | > 100 µM | > 100 µM | – | – | – | – | – | – | –
Cc1ccc(OCC2OC(n3cnc4c(Cl)ncnc43)CC2Oc2ccc(C)cc2)cc1 (centres undefined) | 4.28 µM and 41.6 µM | > 100 µM | 9.35 µM and 34.3 µM | 15.8 µM and 3.29 µM | 7.13 µM and 38.2 µM | 24.2 µM and 5.57 µM | > 59.2 µM and 27.5 µM | 40 µM and 49.9 µM | 21 µM and 16.4 µM | 24.9 µM and 3.73 µM | 1.94 µM and 11.7 µM | 3.53 µM and 17.6 µM | 8.08 µM and 1.84 µM | 2.4 µM and 14.3 µM | 5.22 µM and 2.22 µM | 5.84 µM and 2 µM | 11.1 µM and 1.98 µM
Cc1cc(C)c2c(=N)c3ccccc3n(CCCCCCO)c2n1 | 9.69 µM | 17.9 µM | 11.9 µM | 6.01 µM | – | 16 µM | 8.37 µM | 23.7 µM | 16.7 µM | 6.81 µM | – | – | – | – | – | – | –
COc1cc(/C=C2\Cc3cc(OC)c(OC)cc3C2=O)cc(OC)c1 | > 100 µM | > 100 µM | > 100 µM | > 100 µM | > 52.2 µM | > 57.5 µM | > 100 µM | 69.3 µM | > 100 µM | > 100 µM | – | – | – | – | – | – | –
OC(CCN1CCN(CCOC(c2ccccc2)c2ccccc2)CC1)c1ccc(Br)cc1 (centres undefined) | 19.3 µM | 26.9 µM | 23 µM | 4.77 µM | 23.3 µM | 25.1 µM | 42.8 µM | 26.1 µM | 27 µM | 22.9 µM | – | – | – | – | – | – | –
Cn1c2c(c3ccccc31)CCN1C(=O)C3SC21C1C(=O)N(c2ccccc2)C(=O)C31 (centres undefined) | > 100 µM | > 79.1 µM | > 100 µM | > 100 µM | > 100 µM | > 86.7 µM | > 100 µM | > 100 µM | > 100 µM | > 100 µM | – | 23.4 µM | – | – | – | – | –
Cc1cc(O)ccc1C1(c2ccc(F)cc2)OC(=O)c2ccccc21 (centres undefined) | 12.4 µM | 15.5 µM | 5.28 µM | 16.1 µM | 12.6 µM | 12.5 µM | 2.41 µM | 0.653 µM | 26.9 µM | 12.6 µM | – | – | – | – | – | – | –
O=C(/C=C(\O)c1ccccc1)/C(=C/C(=O)c1ccccc1)NN=C(c1ccccc1)c1ccccc1 | > 100 µM | 97.6 µM | > 100 µM | > 100 µM | > 100 µM | > 100 µM | > 100 µM | > 100 µM | > 100 µM | > 100 µM | – | – | – | – | – | – | –
C=CC(C)(C)c1cc([C@@H]2COc3cc(O)ccc3C2=O)c(O)c(O)c1OC | 32 µM | > 100 µM | 34.7 µM | 35.4 µM | 32.6 µM | 49.4 µM | > 100 µM | 32.7 µM | 39.2 µM | 31.4 µM | – | – | – | – | – | – | –
CN(C)Cc1cc(C(=O)/C=C/c2cccc(Cl)c2)cc(CN(C)C)c1O | 12.7 µM | 22 µM | 22.8 µM | 19.5 µM | 13.3 µM | 18.2 µM | 32.7 µM | 25.8 µM | 12.6 µM | 10.3 µM | – | – | – | – | – | – | –
Cc1ccc(S(=O)(=O)c2ccc([N+](=O)[O-])o2)cc1 | 2.83 µM | 3.04 µM | 3.28 µM | 2.78 µM | 3.94 µM | 4.32 µM | 13.4 µM | 6.16 µM | 3.69 µM | 3.03 µM | – | – | – | – | – | – | –
COc1cc(/C=N\NC(=O)C[N+](C)(C)C)cc(OC)c1OC | > 10 µM | > 10 µM | > 10 µM | – | > 10 µM | > 10 µM | > 10 µM | > 10 µM | > 10 µM | > 10 µM | – | – | – | – | – | – | –

Source: PubChem BioAssay (NCI)
